Among the data in ChEMBL document CHEMBL3390848, “Affinity selection and sequence-activity relationships of HIV-1 membrane fusion inhibitors directed at the drug-resistant variants” (Medchemcomm, 2010) are Activity, EC50 and Tm values, retold here.

Assay [1] relates to Human immunodeficiency virus 1. Put plainly: Binding affinity to HIV1 His-tagged N-terminal heptad repeat of envelope glycoprotein gp41 assessed as recovery of N36-drug complex at 10 uM after 2 hrs by LC-MS analysis.
Assay [2] concerns Human immunodeficiency virus 1. Put plainly: Binding affinity to HIV1 His-tagged N-terminal heptad repeat of envelope glycoprotein gp41 assessed as recovery of N36-drug complex at 6 uM after 2 hrs by LC-MS analysis.
Assay [3] has as its system Human immunodeficiency virus 1. Put plainly: Binding affinity to HIV1 His-tagged N-terminal heptad repeat of envelope glycoprotein gp41 assessed as recovery of N36-drug complex at 1 uM after 2 hrs by LC-MS analysis.
Assay [4] relates to Human immunodeficiency virus 1. Put plainly: Binding affinity to HIV1 His-tagged N-terminal heptad repeat of envelope glycoprotein gp41 assessed as recovery of N36-drug complex at 0.6 uM after 2 hrs by LC-MS analysis.
Assay [5] relates to Human immunodeficiency virus 1. Put plainly: Antiviral activity against HIV1 NL4-3 harboring gp41 D36G mutant infected in human HeLa cells expressing CD4-LTR-beta-gal assessed as inhibition of viral replication after 48 hrs by MAGI assay. The assay is classed as functional, organism-based.
The subject of assay [6] is Human immunodeficiency virus 1. Put plainly: Thermal stability of HIV1 envelope glycoprotein gp41 His-tagged N-terminal heptad repeat N36-drug complex assessed as thermal unfolding transition state by measuring molar ellipticity at 4 to 90 degC by circular dichroic spectra analysis.
In assay [7] the test system is Envelope glycoprotein gp160 (Human immunodeficiency virus 1), Q72502 [V38A]. Put plainly: Binding affinity to HIV1 His-tagged N-terminal heptad repeat of envelope glycoprotein gp41 assessed as recovery of N36 V38A mutant-drug complex after 2 hrs by LC-MS analysis. More on the design: concentration or dose not given beside the values.
In assay [8] the test system is Human immunodeficiency virus 1. Put plainly: Binding affinity to HIV1 His-tagged N-terminal heptad repeat of envelope glycoprotein gp41 assessed as recovery of N36 N43D mutant-drug complex after 2 hrs by LC-MS analysis. Also noted: concentration or dose not given beside the values.
Assay [9] has as its system Envelope glycoprotein gp160 (Human immunodeficiency virus 1), Q72502 [V38A]. Put plainly: Thermal stability of HIV1 envelope glycoprotein gp41 His-tagged N-terminal heptad repeat N36 V38A mutant-drug complex assessed as thermal unfolding transition state by measuring molar ellipticity at 4 to 90 degC by circular dichroic spectra analysis.
The test system of assay [10] is Human immunodeficiency virus 1. Put plainly: Thermal stability of HIV1 envelope glycoprotein gp41 His-tagged N-terminal heptad repeat N36 N43D mutant-drug complex assessed as thermal unfolding transition state by measuring molar ellipticity at 4 to 90 degC by circular dichroic spectra analysis.
Assay [11] has as its system Human immunodeficiency virus 1. Put plainly: Binding affinity to HIV1 His-tagged N-terminal heptad repeat of envelope glycoprotein gp41 assessed as recovery of N36-drug complex after 2 hrs by LC-MS analysis. Also noted: concentration or dose not given beside the values.

Residues, ends and D or L forms follow the SMILES beside them.

For orientation: EC50 means the concentration needed to bring the measured effect to its halfway point. In general, Tm refers to the temperature at which the thermal transition is half complete. As for `CC[C@H](C)[C@H](NC(=O)[C@H](CC(C)C)NC(=O)[C@H](CCC(=O)O)NC(=O)[C@H](CCC(=O)O)NC(=O)[C@@H](NC(=O)[C@H](CCCCN)NC(=O)[C@H](CCCCN)NC(=O)[C@@H](NC(=O)[C@H](Cc1ccc(O)cc1)NC(=O)[C@H](CCC(=O)O)NC(=O)[C@H](CCC(=O)O)NC(=O)[C@@H](NC(=O)[C@H](CCCCN)NC(=O)[C@H](CCCCN)NC(=O)[C@H](CC(=O)O)NC(=O)[C@H](Cc1c[nH]c2ccccc12)NC(=O)[C@H](CCC(=O)O)NC(=O)[C@H](CCC(=O)O)NC(=O)[C@H](Cc1c[nH]c2ccccc12)NC(C)=O)[C@@H](C)CC)[C@@H](C)O)[C@@H](C)CC)C(=O)N[C@@H](CCCCN)C(=O)N[C@@H](CCCCN)C(=O)N[C@@H](CO)C(=O)N[C@@H](CCC(=O)O)C(=O)N[C@@H](CCC(=O)O)C(=O)N[C@@H](CCC(N)=O)C(=O)N[C@@H](CCC(N)=O)C(=O)N[C@@H](CCCCN)C(=O)N[C@@H](CCCCN)C(=O)N[C@@H](CC(N)=O)C(=O)N[C@@H](CCC(=O)O)C(=O)N[C@@H](CCC(=O)O)C(=O)N[C@@H](CCC(=O)O)C(=O)N[C@@H](CC(C)C)C(=O)N[C@@H](CCCCN)C(=O)N[C@@H](CCCCN)C(N)=O` (Ac-WEEWDKKIEEYTKKIEELIKKSEEQQKKNEEELKK-NH2), the Activity in assay [1] worked out at 22.8%; in assay [2], 19.2%; in [3] it was 11.5%; in assay [4], 5.8%; in [7], 11.8%; in [8], 10.9%. Further, the Activity in [11] turned out to be 10.1%. Further, the EC50 in [5] turned out to be 1 nM. For the same molecule, the Tm was found to be 81.6 °C in assay [6], 72.6 °C in assay [9] and 69.9 °C in assay [10].
